# Columns and labels:
# [1] = tested on: Aphis gossypii; assay: Pesticidal effect against Aphis gossypii (cucumber leaf disk); format: in vivo; conditions: Aphis gossypii first instar larvae, spread, 3 days, 25° C.
# Description: A leaf disk having a diameter of 2.0 cmφ was cut out from a cucumber grown in a pot and was placed in a 5.0 cm-Schale. A test solution, which had been adjusted to a predetermined concentration by the addition of a 50% aqueous acetone solution (0.05% Tween 20 added) was spread over the […] leaf disk. After air dried, ten (10) of larvae of Aphis gossypii at the first instar were released in the Schale. Thereafter, the Schale was lidded and was allowed to stand in a temperature-controlled room (light period 16 hr-dark period 8 hr) (25° C.).
# (§1) The death rate of larvae was calculated by the following equation. Death rate (%)={number of dead larvae/(number of survived larvae+number of dead larvae)}×100 The concentrations which gave the death rate of 90% or more are shown in Table 2.
# [2] = tested on: Myzus persicae; assay: Pesticidal effect against Myzus persicae (cabbage leaf disk); format: in vivo; conditions: Myzus persicae first instar larvae, spread, 3 days, 25° C.
# Description: A leaf disk having a diameter of 2.8 cmφ was cut out from a cabbage grown in a pot and was placed in a 5.0 cm-Schale. Four adult aphids of Myzus persicae were released in the Schale. One day after the release of the adult aphids, the adult aphids were removed. The number of larvae at the first instar born in the leaf disk was adjusted to 10, and a test solution, which had been adjusted to a predetermined concentration by the addition of a 50% aqueous acetone solution (0.05% Tween 20 added) was spread over the cabbage leaf disk. The cabbage leaf disk was then air dried. Thereafter, the Schale was lidded and was allowed to stand in a temperature-controlled room (light period 16 hr-dark period 8 hr) (25° C.).
# as §1
# [3] = tested on: Pseudococcus comstocki; assay: Pesticidal effect against Pseudococcus comstocki (Phaseolus vulgaris leaf disk); format: in vivo; conditions: Pseudococcus comstocki first instar larvae, spread, 3 days, 25° C.
# Method: A leaf disk having a diameter of 2.8 cmφ was cut out from a leaf of Phaseolus vulgaris and was placed on an agar in a plastic cup, into which ten (10) of larvae of Pseudococcus comstocki at the first instar were released. A test solution, which had been adjusted to a predetermined concentration by the addition of a 50% aqueous acetone solution (0.05% Tween 20 added) was spread. After air dried, it was allowed to stand in a temperature-controlled room (light period 16 hr-dark period 8 hr) (25° C.).
# as §1
# [4] = tested on: larvae of Helicoverpa zea; conditions: in vivo; cited from earlier work
# [5] = tested on: Tenebrio molitor L; conditions: in vivo; cited from earlier work
# [6] = tested on: Plutella xylostella L larvae; conditions: in vivo; cited from earlier work
Compound,"Concentration (ppm) for the death rate of 90% or more, Test Example 2 [1] [ppm]","Concentration (ppm) for the death rate of 90% or more, Test Example 1 [2] [ppm]","Concentration (ppm) for the death rate of 90% or more, Test Example 3 [3] [ppm]",insecticidal activity against larvae of Helicoverpa zea [4],insecticidal activity against Tenebrio molitor L [5],insecticidal activity against Plutella xylostella L larvae [6]
CC1(COC(=O)C2CC2)C2CC(=O)[C@@]3(C)Oc4cc(-c5cccnc5)oc(=O)c4[C@H](O)C3[C@@]2(C)CC[C@@H]1OC(=O)C1CC1 (stereo partly drawn) [Compound 1],0.078,0.010,0.156,,,
Pyripyropene A,,,,insecticidal activity,insecticidal activity,insecticidal activity
CC1(COC(=O)C2CC2)C2CC[C@@]3(C)Oc4cc(-c5cccnc5)oc(=O)c4[C@H](O)C3[C@@]2(C)CC[C@@H]1OC(=O)C1CC1 (stereo partly drawn) [Compound 2],0.078,0.039,0.625,,,

# Reference: patent US8202890B2, “Pest control agent” (Meiji Seika Pharma Co., Ltd., priority 2006, dated 2012)
